Experimental data reported in paper PMC5219024, “New acetylenic derivatives of betulin and betulone, synthesis and cytotoxic activity” (Medicinal Chemistry Research, 2016).
Values after ≈ are worked out from the molar mass of the structure shown. Where two headings read alike, the source gives them in different places.

Key:
[1] = test system: HL-60 (human promyelocytic leukemia); test: Antiproliferative assay in vitro (MTT), HL-60; format: cell-based; conditions: for IC50: Homo sapiens, read-out: Cytotoxic activity IC50, HL-60
Procedure: (§1) The tested cell lines were obtained from the American Type Culture Collection (Rockville, Maryland, USA) and maintained at the Cell Culture Collection of the Institute of Immunology and Experimental Therapy (Wrocław, Poland). The cells were seeded in 96-well plates (Sarstedt, USA) at a density of 10^4 cells per well in 100 µL of culture medium overnight. […] The normal mouse fibroblasts BALB3T3 was cultured in Dulbecco’s modified Eagle’s medium (Sigma-Aldrich, Chemie GmbH, Steinheim, Germany) supplemented with 2 mM glutamine (Sigma-Aldrich, Chemie GmbH, Steinheim, Germany) and 10 % fetal calf serum FBS (Sigma-Aldrich, Chemie GmbH, Steinheim, Germany). The all culture media were supplemented with streptomycin (100 µg/mL) and penicillin (100 U/mL) (both antibiotics from Polfa, Tarchomin, Poland). The cell cultures were maintained at 37 °C in humid atmosphere saturated with 5 % CO2. The MTT assay was used for the cytotoxicity screening against leukemia cells growing in suspension culture. This assay was performed after 96 h of the leukemia cells to varying concentrations (ranging from 1 to 100 µg/mL) of the tested substances. The derivatives of betulin were dissolved in 10 % DMSO to concentration of 1 mg/mL, and next diluted in culture medium to reach the required concentrations. […] During the last 3–4 h of incubation 20 µl of MTT solution were added to each well (MTT: 3-(4,5-dimethylthiazol-2-yl)-2,5-diphenyl tetrazolium bromide; stock solution: 5 mg/mL). The pale yellow MTT is reduced to a navy blue formazan in the mitochondria of living cells. At the end of incubation time, 80 µL of the lysing mixture was added to each well (lysing mixture: 225 mL dimethylformamide, 67.5 g sodium dodecyl sulfate and 275 mL of distilled water). After 24 h are formed the crystals of formazan, which are insoluble in aqueous solutions. The formazan crystals had been dissolved. The optical densities were read on a Multiskan RC photometer at 570 nm wavelength. The compounds in given concentration were examined in triplicates in each experiment which was repeated 3–5 times. The results of cytotoxic activity in vitro were expressed as an IC50 in µg/mL.

[2] = test system: BALB3T3 normal mouse fibroblasts; test: Antiproliferative assay in vitro (SRB), BALB3T3; format: cell-based; conditions: murine BALB3T3 normal fibroblasts; 96 h exposure; 1 to 100 µg/mL; Neg = negative in the concentration used
Procedure: (§2) The tested cell lines were obtained from the American Type Culture Collection (Rockville, Maryland, USA) and maintained at the Cell Culture Collection of the Institute of Immunology and Experimental Therapy (Wrocław, Poland). The cells were seeded in 96-well plates (Sarstedt, USA) at a density of 10^4 cells per well in 100 µL of culture medium overnight. […] The normal mouse fibroblasts BALB3T3 was cultured in Dulbecco’s modified Eagle’s medium (Sigma-Aldrich, Chemie GmbH, Steinheim, Germany) supplemented with 2 mM glutamine (Sigma-Aldrich, Chemie GmbH, Steinheim, Germany) and 10 % fetal calf serum FBS (Sigma-Aldrich, Chemie GmbH, Steinheim, Germany). The all culture media were supplemented with streptomycin (100 µg/mL) and penicillin (100 U/mL) (both antibiotics from Polfa, Tarchomin, Poland). The cell cultures were maintained at 37 °C in humid atmosphere saturated with 5 % CO2. This technique as first was described by Skehan et al. in [1990]. The SRB assay was performed after 96 h exposure of the cultured cells to varying concentrations (ranging from 1 to 100 µg/mL) of the tested substances. The reported derivatives as well as betulin 1 were dissolved in 10 % dimethyl sulfoxide (DMSO) to concentration of 1 mg/mL, and next diluted in culture medium to reach the required concentrations. […] The cells fastened to the plastic were fixed mildly layering cold 50 % TCA (trichloroacetic acid, Aldrich-Chemie, Germany) on the top of the culture medium in each well. The plates were incubated at 4 °C for 1 h and then washed five times with tap water. The cells fixed with TCA were stained with 0.4 % sulforhodamine B (SRB, Sigma, Germany) dissolved in 1 % acetic acid (POCH, Gliwice, Poland) for 30 min. The unbound dye was removed by rinsing four times with 1 % acetic acid. The protein-bound dye was extracted with 10 mM unbuffered tris base (POCH, Gliwice, Poland) and then determined the optical density at 540 nm in a computer-interfaced, 96-well microtiter plate reader Multiscan RC photometer (Labsystems, Helsinki, Finland). The compounds in given concentration were examined in triplicates in each experiment which was repeated 3–5 times. The results of cytotoxic activity in vitro were expressed as an IC50 in µg/mL.

SW707 (human colorectal) = test: Antiproliferative assay in vitro (SRB), SW707; format: cell-based; conditions: for Cytotoxic activity IC50, SW707: human SW707, 96 h exposure, 1 to 100 µg/mL, Neg = negative in the concentration used
Procedure: as §2

P388 (mouse leukemia) = test: Antiproliferative assay in vitro (MTT), P388; format: cell-based; conditions: murine P388, 96 h exposure, 1 to 100 µg/mL, Neg = negative in the concentration used; for IC50: Mus musculus, read-out: Cytotoxic activity IC50, P388
Procedure: as §1

[3] = test system: CCRF/CEM (human leukemia); test: Antiproliferative assay in vitro (MTT), CCRF/CEM; format: cell-based; conditions: for IC50: read-out: Cytotoxic activity IC50, CCRF/CEM
Procedure: as §1

[4] = test system: T47D (human breast cancer); test: Antiproliferative assay in vitro (SRB), T47D; format: cell-based; conditions: for IC50: read-out: Cytotoxic activity IC50, T47D
Procedure: as §2

[5] = Antiproliferative assay in vitro (SRB), BALB3T3; format: cell-based, mouse; conditions: mouse; murine BALB3T3 normal fibroblasts; 96 h exposure; 1 to 100 µg/mL; Neg = negative in the concentration used; read-out: Cytotoxic activity IC50, BALB3T3
Procedure: as §2

[6] = HL-60 cancer cell line, 96 h exposure
[7] = human CCRF/CEM, 96 h exposure, 1 to 100 µg/mL, Neg = negative in the concentration used
[8] = human T47D, 96 h exposure, 1 to 100 µg/mL, Neg = negative in the concentration used

Row | SMILES | IC50 [1, 6] [µg/mL] | melting point [°C] | Cytotoxic activity IC50, BALB3T3 [2] | Cytotoxic activity IC50, SW707 (SW707 (human colorectal)) | also measured
1 | C=CC(=O)OC[C@]12CC[C@@H](C(=C)C)C1C1CCC3[C@@]4(C)CCC(=O)C(C)(C)C4CC[C@@]3(C)[C@]1(C)CC2 (some centres unmarked) [Compound 16, 28-O-(2-Propenoyl)betulone] | 5 ± 1.3 (≈ 10.1 µM) |  |  |  | 
2 | C=C(C)[C@@H]1CC[C@]2(COC(=O)C#CC3CC3)CC[C@]3(C)C(CCC4[C@@]5(C)CC[C@H](O)C(C)(C)C5CC[C@]43C)C12 (some centres unmarked) [Compound 6, 28-O-(3-Cyclopropyl-2-propynoyl)betulin] | 44.8 ± 10.9 (≈ 83.8 µM) | 108 to 113 | Neg | Neg | IC50 (P388 (mouse leukemia)): 8.4 ± 9.2 µg/mL (≈ 15.7 µM); IC50 [3, 7]: 16.5 ± 8.5 µg/mL (≈ 30.9 µM); IC50 [4, 8]: 33.6 ± 6.3 µg/mL (≈ 62.8 µM)
3 | C=CCOC(=O)OC[C@]12CC[C@@H](C(=C)C)C1C1CCC3[C@@]4(C)CC[C@H](O)C(C)(C)C4CC[C@@]3(C)[C@]1(C)CC2 (some centres unmarked) [Compound 11, 28-O-Allyloxycarbonylbetulin] | 14.9 ± 3.9 (≈ 28.3 µM) |  |  |  | 
4 | C=C(C)[C@@H]1CC[C@]2(COC(=O)OCC#CC)CC[C@]3(C)C(CCC4[C@@]5(C)CCC(=O)C(C)(C)C5CC[C@]43C)C12 (some centres unmarked) [Compound 26, 28-O-(2-Butynyloxycarbonyl)betulone] |  | 150 to 152 | Neg | Neg | IC50 (P388 (mouse leukemia)): 18.3 ± 12.9 µg/mL (≈ 34.1 µM); IC50 [3, 7]: 47.6 ± 5.7 µg/mL (≈ 88.7 µM); IC50 [4, 8]: 79.2 ± 5.2 µg/mL (≈ 148 µM)
5 | C=C(C)[C@@H]1CC[C@]2(CO)CC[C@]3(C)[C@H](CC[C@@H]4[C@@]5(C)CC[C@H](O)C(C)(C)[C@@H]5CC[C@]43C)[C@@H]12 [Betulin 1, lup-20(29)-ene-3β,28-diol, reference compound] |  |  |  |  | IC50 ([1]; HL-60, 96 h): 7.2 ± 0.5 µg/mL (≈ 16.3 µM); IC50 at 96 h [5]: 47.3 ± 7.9 µg/mL (≈ 107 µM); IC50 (SW707 (human colorectal); Homo sapiens, SW707, 96 h, read-out: Cytotoxic activity IC50, SW707): 22.9 ± 15.4 µg/mL (≈ 51.7 µM); IC50 ([3]; Homo sapiens, CCRF-CEM, 96 h): 10.9 ± 5.5 µg/mL (≈ 24.6 µM); IC50 ([4]; Homo sapiens, T47D, 96 h): 32.4 ± 10.7 µg/mL (≈ 73.2 µM)
6 | C#CCOC(=O)OC[C@]12CC[C@@H](C(=C)C)C1C1CCC3[C@@]4(C)CC[C@H](O)C(C)(C)C4CC[C@@]3(C)[C@]1(C)CC2 (some centres unmarked) [Compound 12] | 3.7 ± 0.5 (≈ 7.05 µM) |  |  |  | 
7 | C#CCCOC(=O)OC[C@]12CC[C@@H](C(=C)C)C1C1CCC3[C@@]4(C)CCC(=O)C(C)(C)C4CC[C@@]3(C)[C@]1(C)CC2 (some centres unmarked) [Compound 25, 28-O-(3-Butynyloxycarbonyl)betulone] |  | 81 to 84 | Neg | Neg | IC50 (P388 (mouse leukemia)): 3.8 ± 1.9 µg/mL (≈ 7.08 µM); IC50 [3, 7]: 25.2 ± 4.6 µg/mL (≈ 46.9 µM); IC50 [4, 8]: 29.8 ± 10.7 µg/mL (≈ 55.5 µM)
8 | C=C(C)[C@@H]1CC[C@]2(COC(=O)C#CC3CC3)CC[C@]3(C)C(CCC4[C@@]5(C)CCC(=O)C(C)(C)C5CC[C@]43C)C12 (some centres unmarked) [Compound 18, 28-O-(3-Cyclopropyl-2-propynoyl)betulone] | 33.9 ± 5.5 (≈ 63.6 µM) | 93 to 97 |  |  | 
9 | C=C(C)[C@@H]1CC[C@]2(COC(=O)CC)CC[C@]3(C)C(CCC4[C@@]5(C)CCC(=O)C(C)(C)C5CC[C@]43C)C12 (some centres unmarked) [Compound 15, 28-O-Propanoylbetulone] | 33.7 ± 5.5 (≈ 67.8 µM) |  |  |  | 
10 | C=CCOC(=O)OC[C@]12CC[C@@H](C(=C)C)C1C1CCC3[C@@]4(C)CCC(=O)C(C)(C)C4CC[C@@]3(C)[C@]1(C)CC2 (some centres unmarked) [Compound 23, 28-O-Allyloxycarbonylbetulone] | 28.4 ± 1.6 (≈ 54.1 µM) | 123 to 125 |  |  | 
11 | C=C(C)[C@@H]1CC[C@]2(COC(=O)C#Cc3ccccc3)CC[C@]3(C)C(CCC4[C@@]5(C)CCC(=O)C(C)(C)C5CC[C@]43C)C12 (some centres unmarked) [Compound 19, 28-O-Phenylpropynoylbetulone] |  | 82 to 85 | Neg | Neg | Cytotoxic activity IC50, P388 (P388 (mouse leukemia)): Neg; Cytotoxic activity IC50, CCRF/CEM [3, 7]: Neg; Cytotoxic activity IC50, T47D [4, 8]: Neg
12 | C=C(C)[C@@H]1CC[C@]2(COC(=O)OCCC)CC[C@]3(C)C(CCC4[C@@]5(C)CC[C@H](O)C(C)(C)C5CC[C@]43C)C12 (some centres unmarked) [Compound 10, 28-O-Propoxycarbonylbetulin] | 26.8 ± 2.5 (≈ 50.7 µM) |  |  |  | 
13 | C=C(C)[C@@H]1CC[C@]2(COC(=O)OCCC)CC[C@]3(C)C(CCC4[C@@]5(C)CCC(=O)C(C)(C)C5CC[C@]43C)C12 (some centres unmarked) [Compound 22, 28-O-Propoxycarbonylbetulone] | 21.4 ± 2.1 (≈ 40.6 µM) | 76 to 78 |  |  | 
14 | C#CCOC(=O)OC[C@]12CC[C@@H](C(=C)C)C1C1CCC3[C@@]4(C)CCC(=O)C(C)(C)C4CC[C@@]3(C)[C@]1(C)CC2 (some centres unmarked) [Compound 24, 28-O-Propargyloxycarbonylbetulone] | 11.6 ± 4.9 (≈ 22.2 µM) | 173 to 175 | Neg | Neg | IC50 (P388 (mouse leukemia)): 30.3 ± 11.8 µg/mL (≈ 58 µM); IC50 [3, 7]: 18.7 ± 6.6 µg/mL (≈ 35.8 µM); IC50 [4, 8]: 23.3 ± 3.5 µg/mL (≈ 44.6 µM)
15 | C=C(C)[C@@H]1CC[C@]2(COC(=O)C#CC)CC[C@]3(C)C(CCC4[C@@]5(C)CCC(=O)C(C)(C)C5CC[C@]43C)C12 (some centres unmarked) [Compound 21, 28-O-(2-Butynoyl)betulone] | 29.5 ± 5.4 (≈ 58.2 µM) | 92 to 94 |  |  | 
16 | C#CC(=O)OC[C@]12CC[C@@H](C(=C)C)C1C1CCC3[C@@]4(C)CCC(=O)C(C)(C)C4CC[C@@]3(C)[C@]1(C)CC2 (some centres unmarked) [Compound 17, 28-O-Propynoylbetulone] | 0.3 ± 0.06 (≈ 0.609 µM) | 93 to 96 |  |  | fold potent than betulin 1 against HL-60 ([1]; relative to betulin 1, HL-60): 24 fold
